Usually Kd stands for the constant that tells how readily two partners part at equilibrium.

Each structure is given as a SMILES string. Numbered stars: 1 amine (or outer) side, 2 acyl side, 3 side chain; on linkers, the order of the positions; unused ones are H or OH. Bridge positions count the residues as written; N and C are the ends. Square brackets hold non-standard residues; d marks the D form. Peptide text beside a SMILES is read from it. * marks the point of attachment. ξ: configuration not given here. X11 = O=C(O)CN1CCN(CC(=O)O)CCN(CC(=O)NCCCC[C@@H](NC(=O)COCCOCCOCCOCCOCCOCCOCCOCCNC(=O)Cc2ccc(Br)cc2)C(=O)NCCOCCOCCOCCOCCOCCOCCOCCOCC(=O)*)CCN(CC(=O)O)CC1; DOTA = O=C(O)CN1CCN(CC(=O)O)CCN(CC(=O)*)CCN(CC(=O)O)CC1; Trp(5-F) = N[C@@H](Cc1c[nH]c2ccc(F)cc12)C(=O)O; Trp(7-aza) = N[C@@H](Cc1c[nH]c2ncccc12)C(=O)O; Pro(trans-4-F) = O=C(O)[C@@H]1C[C@@H](F)CN1; Phe(4-F) = N[C@@H](Cc1ccc(F)cc1)C(=O)O; 2Nal = N[C@@H](Cc1ccc2ccccc2c1)C(=O)O; X8 = CC1(C)CN([*:1])[C@@H]1C(=O)[*:2]; Cba = N[C@@H](CC1CCC1)C(=O)O; Tle = CC(C)(C)[C@H](N)C(=O)O; Aze = O=C(O)[C@@H]1CCN1; ξK = NCCCCC(N)C(=O)O

For one assay, the target named is T1, human DLL3 (Homo sapiens, UniProt Q9NYJ7).
T1 sequence (Q9NYJ7 27-618): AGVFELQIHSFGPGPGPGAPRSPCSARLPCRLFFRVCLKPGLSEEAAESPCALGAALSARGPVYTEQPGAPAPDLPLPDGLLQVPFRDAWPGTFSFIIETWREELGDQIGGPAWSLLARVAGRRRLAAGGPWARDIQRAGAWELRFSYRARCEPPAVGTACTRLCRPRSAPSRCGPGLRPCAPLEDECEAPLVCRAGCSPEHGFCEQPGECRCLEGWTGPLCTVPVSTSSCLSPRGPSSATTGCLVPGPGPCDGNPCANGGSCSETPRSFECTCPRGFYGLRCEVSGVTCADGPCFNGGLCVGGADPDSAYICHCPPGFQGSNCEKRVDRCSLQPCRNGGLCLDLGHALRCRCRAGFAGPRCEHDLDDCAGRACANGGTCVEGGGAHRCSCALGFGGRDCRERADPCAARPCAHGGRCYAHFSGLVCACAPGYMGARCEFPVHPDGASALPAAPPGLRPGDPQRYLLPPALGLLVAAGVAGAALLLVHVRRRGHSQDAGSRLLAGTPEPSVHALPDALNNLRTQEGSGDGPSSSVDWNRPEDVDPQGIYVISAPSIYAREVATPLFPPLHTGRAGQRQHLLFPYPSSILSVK
The assay can be described thus: Affinity determination by Surface Plasmon Resonance (SPR). The assay is classed as binding.
Conditions: not given
How it is done: SPR studies were performed on the compounds disclosed herein using the following protocol.
Biotinylated target ligand human DLL3 was immobilized on a streptavidin sensor chip. A reference surface was set up for nonspecific binding and refractive index changes. For analysis of the kinetics of interactions, varying concentrations of samples were injected at a flow rate of 100 μL/minute using running buffer containing 20 mM phosphate buffer with 2.7 mM KCl, 137 mM NaCl, 0.05% Surfactant P20 and 2% DMSO. Sensorgram curves were fitted with 1:1 binding model, and affinity and kinetic parameters were obtained using Biacore Insight evaluation 4.0. software.
Take `CC[C@H](C)[C@H](NC(=O)[C@@H](NC(=O)[C@H](Cc1c[nH]c2ccccc12)NC(C)=O)[C@@H](C)O)C(=O)N[C@H]1CSSC[C@@H](C(=O)N[C@@H](Cc2c[nH]c3ccccc23)C(=O)N2CCC[C@H]2C(=O)N[C@H](CCCCNC(=O)COCCOCCOCCOCCOCCOCCOCCOCCNC(=O)[C@@H](CCCCNC(=O)CN2CCN(CC(=O)O)CCN(CC(=O)O)CCN(CC(=O)O)CC2)NC(=O)COCCOCCOCCOCCOCCOCCOCCOCCNC(=O)Cc2ccc(Br)cc2)C(N)=O)NC(=O)[C@H](CC(=O)O)NC(=O)[C@H](Cc2c[nH]cn2)NC(=O)[C@H](Cc2ccc3ccccc3c2)NC(=O)[C@H](CC(N)=O)NC(=O)[C@H](CC(N)=O)NC1=O` [compound 251, Ac-W-T-I-C(3)-N-N-(2Nal)-H-D-C(3)-W-P-{D-Lys[PEG8-D-Lys(DOTA)-PEG8-COCH2Ph-4Br]}-NH2] (Ac-WTICNN[2Nal]HDCWP[dK](X11)-NH2; disulfide 4-10): the equilibrium dissociation constant (Kd) was under 1 nM.

The assay is the same for the next values; noted with them: 25° C., biotinylated human DLL3 immobilized on streptavidin sensor chip, 1:1 binding model; read-out: SPR KD.
Take `CC[C@H](C)[C@H](NC(=O)[C@@H](NC(=O)[C@H](Cc1c[nH]c2ccccc12)NC(C)=O)[C@@H](C)O)C(=O)N[C@H]1CSSC[C@@H](C(=O)N[C@@H](Cc2ccc3ccccc3c2)C(=O)N2CCC[C@H]2C(=O)N[C@H](CCCCNC(=O)CN2CCN(CC(=O)O)CCN(CC(=O)O)CCN(CC(=O)O)CC2)C(N)=O)NC(=O)[C@H](CC(=O)O)NC(=O)[C@H](Cc2cnc[nH]2)NC(=O)[C@H](Cc2c[nH]c3ccccc23)NC(=O)[C@H](CC(N)=O)NC(=O)[C@H](CC(N)=O)NC1=O` [compound 77, Ac-W-T-I-C(3)-N-N-W-H-D-C(3)-(2Nal)-P-[D-Lys(DOTA)]-NH2] (Ac-WTICNNWHDC[2Nal]P[dK](DOTA)-NH2; disulfide 4-10): the Kd was in the range of 10 to 100 nM.

Take `CC[C@H](C)[C@H](NC(=O)[C@@H](NC(=O)[C@H](Cc1c[nH]c2ccccc12)NC(C)=O)[C@@H](C)O)C(=O)N[C@H]1CSSC[C@@H](C(=O)N[C@@H](Cc2c[nH]c3ccccc23)C(=O)N2CC(C)(C)[C@H]2C(=O)N[C@H](CCCCNC(=O)CN2CCN(CC(=O)O)CCN(CC(=O)O)CCN(CC(=O)O)CC2)C(N)=O)NC(=O)[C@H](CC(=O)O)NC(=O)[C@H](Cc2c[nH]cn2)NC(=O)[C@H](Cc2ccc3ccccc3c2)NC(=O)[C@H](CC(N)=O)NC(=O)[C@H](CC(N)=O)NC1=O` [compound 362, Ac-W-T-I-C(3)-N-N-(2Nal)-H-D-C(3)-W-3Me2-Aze-[D-Lys(DOTA)]-NH2] (Ac-WTICNN[2Nal]HDCW[X8][dK](DOTA)-NH2; disulfide 4-10): the Kd was under 1 nM.

For the compound `CC(=O)N[C@@H](Cc1c[nH]c2ccc(F)cc12)C(=O)N[C@H](C(=O)N[C@H](C(=O)N[C@H]1CSSC[C@@H](C(=O)N[C@@H](Cc2c[nH]c3ncccc23)C(=O)N2CC[C@H]2C(=O)NC(CCCCNC(=O)CN2CCN(CC(=O)O)CCN(CC(=O)O)CCN(CC(=O)O)CC2)C(N)=O)NC(=O)[C@H](CC(=O)O)NC(=O)[C@H](Cc2cnc[nH]2)NC(=O)[C@H](Cc2ccc(F)cc2)NC(=O)[C@H](CC(N)=O)NC(=O)[C@H](CC(N)=O)NC1=O)C(C)(C)C)[C@@H](C)O` (stereo partly drawn) [compound 121, Ac-(5Fluoro-W)-T-(Tbg)-C(3)-N-N-(4Fluoro-F)-H-D-C(3)-(7Aza-W)-(Aze)-[D-Lys(DOTA)]-NH2] (Ac-[Trp(5-F)]T[Tle]CNN[Phe(4-F)]HDC[Trp(7-aza)][Aze][ξK](DOTA)-NH2; disulfide 4-10), the Kd is 10 to 100 nM.

Turning to `CC(=O)N[C@@H](Cc1c[nH]c2ccc(F)cc12)C(=O)N[C@H](C(=O)N[C@@H](CC1CCC1)C(=O)N[C@H]1CSSC[C@@H](C(=O)N[C@@H](Cc2c[nH]c3ncccc23)C(=O)N2C[C@H](F)C[C@H]2C(=O)N[C@H](CCCCNC(=O)CN2CCN(CC(=O)O)CCN(CC(=O)O)CCN(CC(=O)O)CC2)C(N)=O)NC(=O)[C@H](CC(=O)O)NC(=O)[C@H](Cc2cnc[nH]2)NC(=O)[C@H](Cc2ccc(F)cc2)NC(=O)[C@H](CC(N)=O)NC(=O)[C@H](CC(N)=O)NC1=O)[C@@H](C)O` [compound 134, Ac-(5Fluoro-W)-T-(CBA)-C(3)-N-N-(4Fluoro-F)-H-D-C(3)-(7Aza-W)-(trans4Fluoro-P)-[D-Lys(DOTA)]-NH2] (Ac-[Trp(5-F)]T[Cba]CNN[Phe(4-F)]HDC[Trp(7-aza)][Pro(trans-4-F)][dK](DOTA)-NH2; disulfide 4-10), the Kd was in the range of 1 to 10 nM.

(Values after US20250011368A1, “DLL3 TARGETING PEPTIDES AND CONSTRUCTS THEREOF” (MARIANA ONCOLOGY INC., priority 2023, published 2025).)
